Common to all, as to type: cell-based
One experiment deals with Corynespora cassiicola. Put plainly: Corynespora cassiicola growth inhibition in liquid culture (microtiter plate, photometric). The conditions noted are these: A-1.3 0 ppm. The text has this: A synergistic effect exists whenever the action of an active ingredient combination is greater than the sum of the actions of the individual components. The action to be expected E for a given active ingredient combination obeys the so-called COLBY formula and can be calculated as follows (COLBY, S. R. “Calculating synergistic and antagonistic responses of herbicide combination”. Weeds, Vol. 15, pages 20-22; 1967): • ppm=milligrams of active ingredient (=a.i.) per liter of spray mixture • X=% action by active ingredient A) using p ppm of active ingredient • Y=% action by active ingredient B) using q ppm of active ingredient. According to COLBY, the expected (additive) action of active ingredients A)+B) using p+q ppm of active ingredient is: If the action actually observed (O) is greater than the expected action (E), then the action of the combination is super-additive, i.e. there is a synergistic effect. In mathematical terms, synergism corresponds to a positive value for the difference of (O-E). In the case of purely complementary addition of activities (expected activity), said difference (O-E) is zero. A negative value of said difference (O-E) signals a loss of activity compared to the expected activity. Corynespora cassiicola (Target Spot of Soybean, Target Leaf Spot of Tomato): Conidia of the fungus from cryogenic storage were directly mixed into nutrient broth (PDB potato dextrose broth). A DMSO solution of the test compounds was placed into a microtiter plate (96-well format) and the nutrient broth containing the fungal spores was added to it. The test plates were incubated at 24° C. and the inhibition of growth was determined photometrically after 3-4 days at 620 nm. Rates and results are set out in the following tables: […]

The subject of the next experiment is Septoria glycines. Put plainly: Septoria glycines growth inhibition in liquid culture (microtiter plate, visual). The text has this:
A synergistic effect exists whenever the action of an active ingredient combination is greater than the sum of the actions of the individual components. The action to be expected E for a given active ingredient combination obeys the so-called COLBY formula and can be calculated as follows (COLBY, S. R. “Calculating synergistic and antagonistic responses of herbicide combination”. Weeds, Vol. 15, pages 20-22; 1967): • ppm=milligrams of active ingredient (=a.i.) per liter of spray mixture • X=% action by active ingredient A) using p ppm of active ingredient • Y=% action by active ingredient B) using q ppm of active ingredient. According to COLBY, the expected (additive) action of active ingredients A)+B) using p+q ppm of active ingredient is: If the action actually observed (O) is greater than the expected action (E), then the action of the combination is super-additive, i.e. there is a synergistic effect. In mathematical terms, synergism corresponds to a positive value for the difference of (O-E). In the case of purely complementary addition of activities (expected activity), said difference (O-E) is zero. A negative value of said difference (O-E) signals a loss of activity compared to the expected activity. Septoria glycines (Brown Spot): Conidia of the fungus from cryogenic storage were directly mixed into nutrient broth ([…] potato dextrose broth). A DMSO solution of the test compounds was placed into a microtiter plate (96-well format) and the nutrient broth containing the fungal spores was added to it. The test plates were incubated at 24° C. and the inhibition of growth was determined visually after 72 hrs.

The subject of experiment [1] is Mycosphaerella arachidis Syn. Cercospora arachidicola. Nature of the experiment: Mycosphaerella arachidis growth inhibition in liquid culture (microtiter plate, photometric). The conditions noted are these: A-1.3 0 ppm. The text has this: A synergistic effect exists whenever the action of an active ingredient combination is greater than the sum of the actions of the individual components. The action to be expected E for a given active ingredient combination obeys the so-called COLBY formula and can be calculated as follows (COLBY, S. R. “Calculating synergistic and antagonistic responses of herbicide combination”. Weeds, Vol. 15, pages 20-22; 1967): • ppm=milligrams of active ingredient (=a.i.) per liter of spray mixture • X=% action by active ingredient A) using p ppm of active ingredient • Y=% action by active ingredient B) using q ppm of active ingredient. According to COLBY, the expected (additive) action of active ingredients A)+B) using p+q ppm of active ingredient is: If the action actually observed (O) is greater than the expected action (E), then the action of the combination is super-additive, i.e. there is a synergistic effect. In mathematical terms, synergism corresponds to a positive value for the difference of (O-E). In the case of purely complementary addition of activities (expected activity), said difference (O-E) is zero. A negative value of said difference (O-E) signals a loss of activity compared to the expected activity. Mycosphaerella arachidis Syn. Cercospora arachidicola (Brown Leaf Spot of Peanut): Conidia of the fungus from cryogenic storage were directly mixed into nutrient broth (PDB potato dextrose broth). A DMSO solution of the test compounds was placed into a microtiter plate (96-well format) and the nutrient broth containing the fungal spores was added to it. The test plates were incubated at 24° C. and the inhibition of growth was determined photometrically after 5-6 days at 620 nm.

Another experiment has as its system Septoria tritici. Nature of the experiment: Septoria tritici growth inhibition in liquid culture (microtiter plate, photometric). The source says: A synergistic effect exists whenever the action of an active ingredient combination is greater than the sum of the actions of the individual components. The action to be expected E for a given active ingredient combination obeys the so-called COLBY formula and can be calculated as follows (COLBY, S. R. “Calculating synergistic and antagonistic responses of herbicide combination”. Weeds, Vol. 15, pages 20-22; 1967): • ppm=milligrams of active ingredient (=a.i.) per liter of spray mixture • X=% action by active ingredient A) using p ppm of active ingredient • Y=% action by active ingredient B) using q ppm of active ingredient. According to COLBY, the expected (additive) action of active ingredients A)+B) using p+q ppm of active ingredient is: If the action actually observed (O) is greater than the expected action (E), then the action of the combination is super-additive, i.e. there is a synergistic effect. In mathematical terms, synergism corresponds to a positive value for the difference of (O-E). In the case of purely complementary addition of activities (expected activity), said difference (O-E) is zero. A negative value of said difference (O-E) signals a loss of activity compared to the expected activity. Septoria tritici (Leaf Blotch): Conidia of the fungus from cryogenic storage were directly mixed into nutrient broth (PDB potato dextrose broth). A DMSO solution of the test compounds was placed into a microtiter plate (96-well format) and the nutrient broth containing the fungal spores was added to it. The test plates were incubated at 24° C. and the inhibition of growth was determined photometrically after 72 hrs.

These results are taken from patent publication US20230172209A1, “FUNGICIDAL COMPOSITIONS” (SYNGENTA CROP PROTECTION AG, priority 2020, published 2023).

`O=C(NC1CCC1c1ccc(Cl)cc1Cl)c1cccnc1C(F)(F)F` (stereo in doubt) [Cyclobutrifluram]: the “Observed Activity (%)” value in the experiment with Corynespora cassiicola (Cyclobutrifluram 0.0125 ppm) is recorded as 0%; in the experiment on Corynespora cassiicola (Cyclobutrifluram 0.025 ppm), 20%; with Corynespora cassiicola (Cyclobutrifluram 0.05 ppm) it was 50%; in the experiment on Septoria glycines (Table 13: A-1.3 0 ppm, Cyclobutrifluram 0.05 ppm), 70%; with Septoria glycines (Table 13: A-1.3 0 ppm, Cyclobutrifluram 0.1 ppm), 90%; with Septoria glycines (Table 13: A-1.3 0 ppm, Cyclobutrifluram 0.2 ppm) it was 90%. Besides, the “Observed Activity (%)” value was found to be 20% with Septoria glycines (Table 14: A-1.3 0 ppm, Cyclobutrifluram 0.0125 ppm); 50% with Septoria glycines (Table 14: A-1.3 0 ppm, Cyclobutrifluram 0.025 ppm); 70% in the experiment on Septoria glycines (Table 14: A-1.3 0 ppm, Cyclobutrifluram 0.05 ppm); 70% in the experiment with Septoria glycines (Table 14: A-1.3 0 ppm, Cyclobutrifluram 0.1 ppm); 90% in the experiment with Septoria glycines (Table 14: A-1.3 0 ppm, Cyclobutrifluram 0.2 ppm).
As for `CO/C=C(/C(=O)OC)c1ccccc1CSc1nc2ccccc2s1` [Benzothiostrobin], the “Observed Activity (%)” value was determined as 50% in the experiment with Septoria glycines (Table 22: A-1.3 0 ppm, Benzothiostrobin 0.0125 ppm); 70% with Septoria glycines (Table 22: A-1.3 0 ppm, Benzothiostrobin 0.025 ppm); 90% in the experiment with Septoria glycines (Table 22: A-1.3 0 ppm, Benzothiostrobin 0.05 ppm); 90% in the experiment on Septoria glycines (Table 22: A-1.3 0 ppm, Benzothiostrobin 0.1 ppm); 90% in the experiment with Septoria glycines (Table 22: A-1.3 0 ppm, Benzothiostrobin 0.2 ppm).
With `COc1ccnc(C(=O)N[C@@H](C)C(=O)O[C@@H](C)C(c2ccc(F)cc2)c2ccc(F)cc2)c1OC(C)=O` [Florylpicoxamid], the “Observed Activity (%)” value was 70% with Septoria glycines (Table 15: A-1.3 0 ppm, Florylpicoxamid 0.05 ppm) and 90% with Septoria glycines (Table 15: A-1.3 0 ppm, Florylpicoxamid 0.1 ppm).
In the case of `COc1c(F)c(F)c(C(=O)NCc2ncc(C(F)(F)F)cc2Cl)c(F)c1F` [Fluopimomide], the “Observed Activity (%)” value in the experiment with Septoria glycines (Table 20: A-1.3 0 ppm, Fluopimomide 1.25 ppm) came out at 0%; in the experiment on Septoria glycines (Table 20: A-1.3 0 ppm, Fluopimomide 2.5 ppm), 0%; in the experiment with Septoria glycines (Table 20: A-1.3 0 ppm, Fluopimomide 5 ppm) it was 0%; in the experiment with Septoria glycines (Table 20: A-1.3 0 ppm, Fluopimomide 10 ppm), 0%; in the experiment with Septoria glycines (Table 20: A-1.3 0 ppm, Fluopimomide 20 ppm), 0%.
As for `Cc1nc2c(F)c(F)ccc2cc1Oc1cccc(F)c1C(C)(C)O` [Ipflufenoquin], the “Observed Activity (%)” value in the experiment on Septoria glycines (Table 16: A-1.3 0 ppm, Ipflufenoquin 0.6125 ppm) is 70%; in the experiment on Septoria glycines (Table 16: A-1.3 0 ppm, Ipflufenoquin 1.25 ppm), 90%.
For the compound `CNC(=O)C(OC)c1ccccc1COc1cc(C)ccc1C` (stereo not shown) [Mandestrobin], the “Observed Activity (%)” value is reported as 50% in the experiment with Septoria glycines (Table 17: A-1.3 0 ppm, Mandestrobin 0.125 ppm); 70% with Septoria glycines (Table 17: A-1.3 0 ppm, Mandestrobin 0.25 ppm); 90% in the experiment on Septoria glycines (Table 17: A-1.3 0 ppm, Mandestrobin 0.5 ppm); 70% with Septoria glycines (Table 18: A-1.3 0 ppm, Mandestrobin 0.25 ppm); 70% in the experiment on Septoria glycines (Table 18: A-1.3 0 ppm, Mandestrobin 0.5 ppm); 90% in the experiment on Septoria glycines (Table 18: A-1.3 0 ppm, Mandestrobin 1 ppm).
Consider `Cc1cccc(-n2nnn(C)c2=O)c1COc1ccn(-c2ccc(Cl)cc2)n1` [Metyltetraprole], for which the “Observed Activity (%)” value came out at 50% with Septoria glycines (Table 19: A-1.3 0 ppm, Metyltetraprole 0.003125 ppm); 70% in the experiment on Septoria glycines (Table 19: A-1.3 0 ppm, Metyltetraprole 0.00625 ppm); 90% with Septoria glycines (Table 19: A-1.3 0 ppm, Metyltetraprole 0.0125 ppm); 20% with Septoria glycines (Table 23: A-1.3 0 ppm, Metyltetraprole 0.003125 ppm); 70% in the experiment with Septoria glycines (Table 23: A-1.3 0 ppm, Metyltetraprole 0.00625 ppm); 70% with Septoria glycines (Table 23: A-1.3 0 ppm, Metyltetraprole 0.0125 ppm). Moreover, the “Observed Activity (%)” value in the experiment on Septoria glycines (Table 23: A-1.3 0 ppm, Metyltetraprole 0.025 ppm) is listed as 90%; in the experiment on Septoria glycines (Table 23: A-1.3 0 ppm, Metyltetraprole 0.05 ppm), 90%; in the experiment on Septoria glycines (Table 23: A-1.3 0 ppm, Metyltetraprole 0.1 ppm), 90%.
With `COc1cc(C)c(C(=O)c2c(OC)ncc(Cl)c2C)c(OC)c1OC` [Pyriofenone], the “Observed Activity (%)” value in experiment [1] (Pyriofenone 2.5 ppm) was found to be 0%; in experiment [1] (Pyriofenone 5 ppm), 0%; in experiment [1] (Pyriofenone 10 ppm) it was 0%; in experiment [1] (Pyriofenone 20 ppm) it was 0%; in the experiment with Septoria glycines (Table 21: A-1.3 0 ppm, Pyriofenone 1.25 ppm), 20%; in the experiment on Septoria glycines (Table 21: A-1.3 0 ppm, Pyriofenone 2.5 ppm), 20%. The “Observed Activity (%)” value in the experiment on Septoria glycines (Table 21: A-1.3 0 ppm, Pyriofenone 5 ppm) amounted to 20%; in the experiment on Septoria glycines (Table 21: A-1.3 0 ppm, Pyriofenone 10 ppm), 20%; in the experiment with Septoria glycines (Table 21: A-1.3 0 ppm, Pyriofenone 20 ppm), 20%.
As for `CN1OC(c2ccc(Cl)cc2)CC1(C)c1cccnc1` (stereo not shown) [Pyrisoxazole], the “Observed Activity (%)” value in the experiment with Corynespora cassiicola (Pyrisoxazole 0.5 ppm) is given as 20%; in the experiment with Corynespora cassiicola (Pyrisoxazole 1 ppm), 70%; in the experiment with Septoria tritici (Table 11: A-1.3 0 ppm, Pyrisoxazole 0.25 ppm), 0%; in the experiment on Septoria tritici (Table 11: A-1.3 0 ppm, Pyrisoxazole 0.5 ppm), 20%; in the experiment on Septoria tritici (Table 12: A-1.3 0 ppm, Pyrisoxazole 0.0625 ppm), 0%; with Septoria tritici (Table 12: A-1.3 0 ppm, Pyrisoxazole 0.125 ppm), 0%. Moreover, the “Observed Activity (%)” value with Septoria tritici (Table 12: A-1.3 0 ppm, Pyrisoxazole 0.25 ppm) is on record as 0%; with Septoria tritici (Table 12: A-1.3 0 ppm, Pyrisoxazole 0.5 ppm), 70%; with Septoria tritici (Table 12: A-1.3 0 ppm, Pyrisoxazole 1 ppm) it was 90%.
